The values below are quoted from earlier work in patent publication US20040220135A1 (priority 2003, published 2004).

The data set relates to liver metastases. The following applies: Gray et al (2001) Annals of Oncology 12: 1711-1720.

For `O=c1[nH]c(=O)n([C@H]2C[C@H](O)[C@@H](CO)O2)cc1F` [floxuridine], the Response rate is 17.6% and the “Time to disease progression” value is 9.7 months.
